# Reference: PMC9825622, “Leveraging molecular structure and bioactivity with chemical language models for de novo drug design” (Nature Communications, 2023)
# How the values were obtained:
# [1] = target: T1, PI3Kγ (Homo sapiens, UniProt P48736); test: KINOMEscan biochemical kinase binding assay (Kd determination); conditions: for experimentally determined binding constant Kd: Fig. 4, commercially available compounds, absence of a value (−) = no observed binding; for Kd: average of N = 2 independent experiments
# T1 construct: purchased Eurofins Discovery (KINOMEscan, fee-for-service)
# T1 sequence (P48736 whole entry): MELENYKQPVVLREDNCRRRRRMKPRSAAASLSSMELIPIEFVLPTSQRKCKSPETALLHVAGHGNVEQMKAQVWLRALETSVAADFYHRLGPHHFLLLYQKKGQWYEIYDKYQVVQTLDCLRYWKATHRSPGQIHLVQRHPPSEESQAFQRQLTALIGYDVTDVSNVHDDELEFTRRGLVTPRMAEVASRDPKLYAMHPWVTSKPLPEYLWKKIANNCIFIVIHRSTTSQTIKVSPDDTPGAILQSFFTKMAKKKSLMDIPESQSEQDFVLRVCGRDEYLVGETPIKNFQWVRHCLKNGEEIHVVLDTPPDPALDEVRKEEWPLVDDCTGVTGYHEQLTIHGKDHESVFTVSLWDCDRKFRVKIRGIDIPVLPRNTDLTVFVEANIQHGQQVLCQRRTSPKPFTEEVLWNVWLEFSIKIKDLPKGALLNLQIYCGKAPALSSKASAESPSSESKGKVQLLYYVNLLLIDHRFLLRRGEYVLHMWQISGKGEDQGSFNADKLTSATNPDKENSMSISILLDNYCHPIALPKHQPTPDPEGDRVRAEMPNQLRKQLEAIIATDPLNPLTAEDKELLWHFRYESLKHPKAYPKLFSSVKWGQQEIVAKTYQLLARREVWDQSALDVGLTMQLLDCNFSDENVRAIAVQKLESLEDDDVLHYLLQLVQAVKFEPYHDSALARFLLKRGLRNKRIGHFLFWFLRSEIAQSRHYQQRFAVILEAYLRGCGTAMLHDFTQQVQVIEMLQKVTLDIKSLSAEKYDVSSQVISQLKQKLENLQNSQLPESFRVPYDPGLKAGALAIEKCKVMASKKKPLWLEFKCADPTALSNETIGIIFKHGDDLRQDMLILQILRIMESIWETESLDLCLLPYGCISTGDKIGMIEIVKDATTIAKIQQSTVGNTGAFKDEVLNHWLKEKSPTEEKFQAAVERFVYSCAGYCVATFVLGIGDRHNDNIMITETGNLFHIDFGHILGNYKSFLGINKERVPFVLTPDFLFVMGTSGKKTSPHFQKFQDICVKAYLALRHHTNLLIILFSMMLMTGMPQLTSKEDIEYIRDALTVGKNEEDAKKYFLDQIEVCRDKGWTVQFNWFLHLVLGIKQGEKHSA
# Procedure: PI3Kγ binding assays were performed by Eurofins Discovery (https://www.eurofinsdiscoveryservices.com) on a fee-for-service basis. KINOMEscan™ was used to determine the dissociation constant Kd. […] Competition of the test compound with the immobilized ligand was measured via quantitative PCR (qPCR) of the DNA tag of DNA-tagged kinase. An 11-point three-fold serial dilution of each test compound was prepared in 100% DMSO at 100× final test concentration and subsequently diluted to 1× in the assay (final DMSO concentration = 1%). Dissociation constants were estimated with a standard dose-response curve using the Hill equation (Eq. 4)[71]:4 Response=Background+Signal−Background/1+KdHillslope/Dose^HillSlope, where the Hill slope was set to −1. Curves were fitted using a nonlinear least square fit with the Levenberg–Marquardt algorithm[72],[73].
# [2] = tested on: HD-MB03 medulloblastoma cells; test: CellTiter-Glo cell viability/proliferation assay; type: cell-based, human; conditions: for IC50: Homo sapiens, HD-MB03, 72 h, 72 h exposure, medium supplemented with FBS, read-out: IC50 (CellTiter-Glo viability, best-fit)
# Procedure: HD-MBO3 Group 3 medulloblastoma cells were cultured in RPMI medium supplemented with 10% fetal bovine serum (FBS, both from Sigma-Aldrich, St. Louis, USA), 1% Penicillin-Streptomycin, and 1% GlutaMAX (both from Gibco/Thermo Fisher Scientific, Waltham, USA). The cells were maintained at 37 °C in a humidified atmosphere containing 5% CO2. […] DMSO was used as solvent control in all assays.
# Cell viability was determined using CellTiter-Glo® 2.0 Cell Viability Assay (G9242, Promega, Madison, USA). About 500 cells per 20 μl were seeded in a flat bottom 384-well plate (781098, Greiner bio-one, Kremsmünster, Austria). Increasing concentrations of compounds were deposited on cells using an HP Digital Drug Dispenser (Hewlett-Packard, Palo Alto, USA) with DMSO total volume normalization. After 72 h, the CellTiter-Glo reagent was added (volume/volume) following the manufacturer’s instructions. Luminescence representing the number of viable cells was quantified with a Cytation 3 imaging reader (BioTek, Winooski, USA). […] Prism 9 software (GraphPad Software, San Diego, CA, USA) was used to calculate best-fit values of inhibitor vs. normalized response and to predict IC50.
# [3] = tested on: PI3Kα; conditions: cited from earlier work
# [4] = tested on: PI3Kδ; conditions: cited from earlier work
compound,measurement,setting,value
COc1ccc(-c2cc(C(F)(F)F)n3ncc(C#N)c3n2)cc1OC [Compound 2],"PI3Kγ activity in vitro (biochemical assay), in words",[1],inactive in vitro
same,experimentally determined binding constant Kd,[1],no observed binding
COc1ccc(-c2nc(-c3ccc(F)cc3)no2)cc1OC [Compound 3],experimentally determined binding constant Kd,[1],no observed binding
COc1ccc(-c2cc(C(F)F)n3ncc(C#N)c3n2)cc1OC [Compound 4],"PI3Kγ activity in vitro (biochemical assay), in words",[1],inactive in vitro
same,experimentally determined binding constant Kd,[1],no observed binding
COc1ccc(-c2nnc(C(C)C)s2)cc1OC [Compound 5],experimentally determined binding constant Kd,[1],no observed binding
COc1ccc(-c2cnc(N)cc2C)cc1OC [Compound 6],experimentally determined binding constant Kd,[1],no observed binding
COc1ccc(-c2cc(CCl)no2)cc1OC [Compound 7],experimentally determined binding constant Kd,[1],no observed binding
COc1ccc(C(=O)Nc2ccc3ccccc3c2)cc1OC [Compound 8],experimentally determined binding constant Kd,[1],no observed binding
COc1ccc(-c2nc(-c3ccc(F)cc3)c(-c3ccc(F)cc3)[nH]2)cc1O [Compound 9],experimentally determined binding constant Kd,[1],no observed binding
COc1ccc(Nc2nc(-c3ccc(Br)cc3)nc3ccccc23)cc1OC [Compound 10],experimentally determined binding constant Kd,[1],no observed binding
COc1ccc(-c2nnc(CCl)o2)cc1OC [Compound 11],experimentally determined binding constant Kd,[1],no observed binding
COc1ccc(-c2nc(CN)no2)cc1OC [Compound 12],experimentally determined binding constant Kd,[1],no observed binding
COc1ccc(-c2noc(-c3ccc(O)cc3)n2)cc1OC [Compound 13],experimentally determined binding constant Kd,[1],no observed binding
COc1ccc(-c2nc(CCl)c(C)o2)cc1OC [Compound 14],experimentally determined binding constant Kd,[1],no observed binding
COc1ccc(Nc2ncccc2[N+](=O)[O-])cc1OC [Compound 15],experimentally determined binding constant Kd,[1],no observed binding
COc1ccc(-c2cnoc2-c2cc(OC)c(OC)c(OC)c2)cc1O [Compound 16],experimentally determined binding constant Kd,[1],no observed binding
CC(C)n1nc(-c2cc(Cl)c(O)c(C3CC3)c2)c2c(N)ncnc21 [Compound 20],Kd,[1],120 nM
CC(C)n1nc(-c2cc(C3CC3)c(O)c(C3CC3)c2)c2c(N)ncnc21 [Compound 21],Kd,[1],290 nM
CC(C)n1nc(-c2cc(Cl)c(O)c(Cl)c2)c2c(N)ncnc21 [Compound 22],Kd,[1],13 nM
same,effect on viability at 100 nM,[2]; 100 nM concentration,neither 18 nor 22 caused a significant reduction in viability
same,IC50,[2],188 nM
"COc1c(OCCCN2CCOCC2)ccc2c1N=C(NC(=O)c1cnc(N)nc1)N1CCN=C21 [copanlisib, Copanlisib]",inhibitory activity against PI3Kα,[3],sub-nanomolar
same,IC50,[2],19.4 nM
same,inhibitory activity against PI3Kδ,[4],sub-nanomolar
